From US10961539B2, “Promoter system inducing expression by 3-hydroxypropionic acid and method for biological production of 3-hydroxypropionic acid using same” (NOROO IC Co., Ltd., priority 2015, dated 2021)
Where “and” joins values, the source holds several entries; their conditions need not be identical. Identical values can stand only once. Like-named read-outs stand apart in the source and are kept apart here.

Assays:
[1] = tested on: 3hpdh; assay: RT-PCR relative mRNA levels of 3-HP degrading genes in various microorganisms (Table 7); type: cell-based, microorganisms shown in Table 1
[2] = tested on: C4-LysR protein and promoter DNA fragments; assay: Electrophoretic mobility shift assay (EMSA) of C4-LysR protein with promoter DNA fragments; type: binding, Pseudomonas denitrificans; conditions: 25 mM 3-HP
[3] = tested on: 3hibdh; type: cell-based, microorganisms shown in Table 1
[4] = tested on: 3hibdhIV; assay: RT-PCR relative mRNA level of 3-HP catabolic gene
[5] = Achromobacter denitrificans, + 3-HP
[6] = Acidovorax avenae subsp., + 3-HP
[7] = Acinetobacter baumannii, + 3-HP
[8] = Alcanivorax hongdengensis, + 3-HP
[9] = Alicychphilus denitrificans, + 3-HP
[10] = Azospirillum brasilensse, + 3-HP
[11] = Bradyrhizobium japonicum, + 3-HP
[12] = Catenulispora acidiphilia, + 3-HP
[13] = Chromobacterium violaceum, + 3-HP
[14] = Corynebacterium vitaeruminis, + 3-HP
[15] = Glaciecola nitratireducens, + 3-HP
[16] = Janthinobacterium lividum, + 3-HP
[17] = Parvibaculum lavamentivorans, + 3-HP
[18] = Phenylobacterium kunshanensis, + 3-HP
[19] = Polynucleobacter necessarius asymbioticus, + 3-HP
[20] = Pseudomonas denitrificans ATCC13867, + 3-HP
[21] = Pseudomonas fluorescens, + 3-HP
[22] = Pseudomonas knackmussii, + 3-HP
[23] = Psychrobacter phenylpyruvicus, + 3-HP
[24] = Rhodomicrobium vannielli, + 3-HP
[25] = Sphingobium chlorophenolicum, + 3-HP
[26] = Stenotrophomonas maltophilia, + 3-HP
[27] = Verminephrobacter eiseniae, + 3-HP
[28] = Xanthobacter autotrophicus, + 3-HP
[29] = in the microorganisms (Table 7), 25 mM 3-HP in nutrient medium

## O=C(O)CCO [3-HP, 3-hydroxypropionic acid]
[1]
  Relative mRNA level 3hpdh + 3-HP: 0.19
[1]; [5]
  Relative mRNA level 3hpdh + 3-HP: 0.24
[1]; [6]
  Relative mRNA level 3hpdh + 3-HP: 0.28
[1]; Acidovorax sp., + 3-HP
  Relative mRNA level 3hpdh + 3-HP: 0.31
[1]; [7]
  Relative mRNA level 3hpdh + 3-HP: 0.19
[1]; Agrobacterium sp., + 3-HP
  Relative mRNA level 3hpdh + 3-HP: 0.27
[1]; Alcaligenes faecalis, + 3-HP
  Relative mRNA level 3hpdh + 3-HP: 0.26
[1]; [8]
  Relative mRNA level 3hpdh + 3-HP: 0.27
[1]; [9]
  Relative mRNA level 3hpdh + 3-HP: 0.30
[1]; Alteromonas marina, + 3-HP
  Relative mRNA level 3hpdh + 3-HP: 0.34
[1]; [10]
  Relative mRNA level 3hpdh + 3-HP: 0.41
[1]; Bordetella avium, + 3-HP
  Relative mRNA level 3hpdh + 3-HP: 0.45
[1]; [11]
  Relative mRNA level 3hpdh + 3-HP: 0.52
[1]; Burkholderia ambifaria, + 3-HP
  Relative mRNA level 3hpdh + 3-HP: 0.31
[1]; [12]
  Relative mRNA level 3hpdh + 3-HP: 0.41
[1]; Caulobacter sp., + 3-HP
  Relative mRNA level 3hpdh + 3-HP: 0.45
[1]; [13]
  Relative mRNA level 3hpdh + 3-HP: 0.25
[1]; Comamonas testosteroni, + 3-HP
  Relative mRNA level 3hpdh + 3-HP: 0.24
[1]; [14]
  Relative mRNA level 3hpdh + 3-HP: 0.28
[1]; Cupriavidus necator, + 3-HP
  Relative mRNA level 3hpdh + 3-HP: 0.21
[1]; [15]
  Relative mRNA level 3hpdh + 3-HP: 0.30
[1]; Gordonia bronchialis, + 3-HP
  Relative mRNA level 3hpdh + 3-HP: 0.29
[1]; Hahella chijuensis, + 3-HP
  Relative mRNA level 3hpdh + 3-HP: 0.28
[1]; Halomonas elongata, + 3-HP
  Relative mRNA level 3hpdh + 3-HP: 0.32
[1]; Hirschia litorea, + 3-HP
  Relative mRNA level 3hpdh + 3-HP: 0.34
[1]; Idiomarina sp., + 3-HP
  Relative mRNA level 3hpdh + 3-HP: 0.42
[1]; [16]
  Relative mRNA level 3hpdh + 3-HP: 0.33
[1]; Kitasatospora setae, + 3-HP
  Relative mRNA level 3hpdh + 3-HP: 0.36
[1]; Kutzneria albida, + 3-HP
  Relative mRNA level 3hpdh + 3-HP: 0.41
[1]; Methylobacterium sp., + 3-HP
  Relative mRNA level 3hpdh + 3-HP: 0.45
[1]; Novosphingobium sp., + 3-HP
  Relative mRNA level 3hpdh + 3-HP: 0.39
[1]; Oceanimonas smirnovii, + 3-HP
  Relative mRNA level 3hpdh + 3-HP: 0.24
[1]; Paracoccus sp., + 3-HP
  Relative mRNA level 3hpdh + 3-HP: 0.25
[1]; [17]
  Relative mRNA level 3hpdh + 3-HP: 0.28
[1]; [18]
  Relative mRNA level 3hpdh + 3-HP: 0.33
[1]; [19]
  Relative mRNA level 3hpdh + 3-HP: 0.45
[1]; Pseudogulbenkiania sp., + 3-HP
  Relative mRNA level 3hpdh + 3-HP: 0.26
[1]; [20]
  Relative mRNA level 3hpdh + 3-HP: 0.23
[1]; [21]
  Relative mRNA level 3hpdh + 3-HP: 0.27
[1]; [22]
  Relative mRNA level 3hpdh + 3-HP: 0.25
[1]; Pseudomonas protegens, + 3-HP
  Relative mRNA level 3hpdh + 3-HP: 0.19
[1]; [23]
  Relative mRNA level 3hpdh + 3-HP: 0.37
[1]; [24]
  Relative mRNA level 3hpdh + 3-HP: 0.41
[1]; Segniliparus rotundus, + 3-HP
  Relative mRNA level 3hpdh + 3-HP: 0.27
[1]; Shewanella oneidensis, + 3-HP
  Relative mRNA level 3hpdh + 3-HP: 0.28
[1]; Simiduia agarovorans, + 3-HP
  Relative mRNA level 3hpdh + 3-HP: 0.29
[1]; [25]
  Relative mRNA level 3hpdh + 3-HP: 0.33
[1]; Sphingomonas wittichii, + 3-HP
  Relative mRNA level 3hpdh + 3-HP: 0.45
[1]; [26]
  Relative mRNA level 3hpdh + 3-HP: 0.31
[1]; Streptomyces nodosus, + 3-HP
  Relative mRNA level 3hpdh + 3-HP: 0.39
[1]; [27]
  Relative mRNA level 3hpdh + 3-HP: 0.43
[1]; Vibrio furnissii, + 3-HP
  Relative mRNA level 3hpdh + 3-HP: 0.39
[1]; [28]
  Relative mRNA level 3hpdh + 3-HP: 0.27
[1]; Xanthomonas campestri, + 3-HP
  Relative mRNA level 3hpdh + 3-HP: 0.25
[1]; [29]
  increase of expression of 3hpdh by 3-HP: 6 fold
[2]; fragment F1
  change of affinity of C4-LysR protein to DNA fragment in the presence of 3-HP: barely changed affinity
[2]; fragment F2
  change of affinity of C4-LysR protein to DNA fragment in the presence of 3-HP: slightly decreased affinity
[2]; fragment F12 (O1 and O2 operators)
  change of affinity of C4-LysR protein to DNA fragment in the presence of 3-HP: increased affinity
[3]
  Relative mRNA level 3hibdh + 3-HP: 7.21 and 6.43
[3]; [5]
  Relative mRNA level 3hibdh + 3-HP: 6.40
[3]; [6]
  Relative mRNA level 3hibdh + 3-HP: 5.97
[3]; Acidovorax sp., + 3-HP
  Relative mRNA level 3hibdh + 3-HP: 6.76
[3]; [7]
  Relative mRNA level 3hibdh + 3-HP: 6.02
[3]; Aeromonas hydrophilia, + 3-HP
  Relative mRNA level 3hibdh + 3-HP: 6.17
[3]; Agrobacterium sp., + 3-HP
  Relative mRNA level 3hibdh + 3-HP: 6.27
[3]; Alcaligenes faecalis, + 3-HP
  Relative mRNA level 3hibdh + 3-HP: 5.87
[3]; [8]
  Relative mRNA level 3hibdh + 3-HP: 6.74
[3]; [9]
  Relative mRNA level 3hibdh + 3-HP: 7.01
[3]; Alteromonas marina, + 3-HP
  Relative mRNA level 3hibdh + 3-HP: 6.09
[3]; Amycolatopsis sp., + 3-HP
  Relative mRNA level 3hibdh + 3-HP: 5.96
[3]; Anaeromyxobacter dehalogenans, + 3-HP
  Relative mRNA level 3hibdh + 3-HP: 6.43
[3]; [10]
  Relative mRNA level 3hibdh + 3-HP: 6.54
[3]; Azotobacter vinelandii, + 3-HP
  Relative mRNA level 3hibdh + 3-HP: 6.73
[3]; Beijerinckia indica, + 3-HP
  Relative mRNA level 3hibdh + 3-HP: 6.59
[3]; Bordetella avium, + 3-HP
  Relative mRNA level 3hibdh + 3-HP: 6.04
[3]; [11]
  Relative mRNA level 3hibdh + 3-HP: 7.21
[3]; Burkholderia ambifaria, + 3-HP
  Relative mRNA level 3hibdh + 3-HP: 5.94
[3]; Castellaniella defragrans, + 3-HP
  Relative mRNA level 3hibdh + 3-HP: 7.43
[3]; [12]
  Relative mRNA level 3hibdh + 3-HP: 5.84
[3]; Caulobacter sp., + 3-HP
  Relative mRNA level 3hibdh + 3-HP: 5.96
[3]; [13]
  Relative mRNA level 3hibdh + 3-HP: 7.02
[3]; Collimonas arenae, + 3-HP
  Relative mRNA level 3hibdh + 3-HP: 7.20
[3]; Comamonas testosteroni, + 3-HP
  Relative mRNA level 3hibdh + 3-HP: 5.88
[3]; [14]
  Relative mRNA level 3hibdh + 3-HP: 6.99
[3]; Cupriavidus necator, + 3-HP
  Relative mRNA level 3hibdh + 3-HP: 6.84
[3]; Curvibacter gracilus, + 3-HP
  Relative mRNA level 3hibdh + 3-HP: 5.76
[3]; Delftia acidovorans, + 3-HP
  Relative mRNA level 3hibdh + 3-HP: 6.34
[3]; Ferrimonas balearica, + 3-HP
  Relative mRNA level 3hibdh + 3-HP: 7.04
[3]; [15]
  Relative mRNA level 3hibdh + 3-HP: 7.11
[3]; Gordonia bronchialis, + 3-HP
  Relative mRNA level 3hibdh + 3-HP: 6.99
[3]; Hahella chijuensis, + 3-HP
  Relative mRNA level 3hibdh + 3-HP: 6.81
[3]; Halomonas elongata, + 3-HP
  Relative mRNA level 3hibdh + 3-HP: 5.41
[3]; Hirschia litorea, + 3-HP
  Relative mRNA level 3hibdh + 3-HP: 6.19
[3]; Idiomarina sp., + 3-HP
  Relative mRNA level 3hibdh + 3-HP: 7.21
[3]; [16]
  Relative mRNA level 3hibdh + 3-HP: 6.98
[3]; Kitasatospora setae, + 3-HP
  Relative mRNA level 3hibdh + 3-HP: 6.46
[3]; Kutzneria albida, + 3-HP
  Relative mRNA level 3hibdh + 3-HP: 5.96
[3]; Methylobacterium sp., + 3-HP
  Relative mRNA level 3hibdh + 3-HP: 6.02
[3]; Methylocystis sp., + 3-HP
  Relative mRNA level 3hibdh + 3-HP: 6.51
[3]; Novosphingobium sp., + 3-HP
  Relative mRNA level 3hibdh + 3-HP: 5.98
[3]; Oceanimonas smirnovii, + 3-HP
  Relative mRNA level 3hibdh + 3-HP: 6.44
[3]; Paracoccus sp., + 3-HP
  Relative mRNA level 3hibdh + 3-HP: 6.32
[3]; [17]
  Relative mRNA level 3hibdh + 3-HP: 7.31
[3]; [18]
  Relative mRNA level 3hibdh + 3-HP: 7.43
[3]; Photobacterium gaetbuleda, + 3-HP
  Relative mRNA level 3hibdh + 3-HP: 7.02
[3]; [19]
  Relative mRNA level 3hibdh + 3-HP: 6.99
[3]; Pseudoalteromonas carrgeenovora, + 3-HP
  Relative mRNA level 3hibdh + 3-HP: 5.76
[3]; Pseudogulbenkiania sp., + 3-HP
  Relative mRNA level 3hibdh + 3-HP: 5.98
[3]; [20]
  Relative mRNA level 3hibdh + 3-HP: 6.20
[3]; [21]
  Relative mRNA level 3hibdh + 3-HP: 5.81
[3]; [22]
  Relative mRNA level 3hibdh + 3-HP: 6.81
[3]; Pseudomonas protegens, + 3-HP
  Relative mRNA level 3hibdh + 3-HP: 5.62
[3]; Pseudoxanthomonas spadix, + 3-HP
  Relative mRNA level 3hibdh + 3-HP: 5.99
[3]; [23]
  Relative mRNA level 3hibdh + 3-HP: 7.04
[3]; [24]
  Relative mRNA level 3hibdh + 3-HP: 7.01
[3]; Segniliparus rotundus, + 3-HP
  Relative mRNA level 3hibdh + 3-HP: 5.81
[3]; Shewanella oneidensis, + 3-HP
  Relative mRNA level 3hibdh + 3-HP: 5.81
[3]; Simiduia agarovorans, + 3-HP
  Relative mRNA level 3hibdh + 3-HP: 5.76
[3]; Sinorhizobium meliloti, + 3-HP
  Relative mRNA level 3hibdh + 3-HP: 5.79
[3]; [25]
  Relative mRNA level 3hibdh + 3-HP: 5.99
[3]; Sphingomonas wittichii, + 3-HP
  Relative mRNA level 3hibdh + 3-HP: 7.02
[3]; Sphingopyxis alaskensis, + 3-HP
  Relative mRNA level 3hibdh + 3-HP: 7.00
[3]; [26]
  Relative mRNA level 3hibdh + 3-HP: 6.02
[3]; Streptomyces nodosus, + 3-HP
  Relative mRNA level 3hibdh + 3-HP: 6.72
[3]; Tatlockia micdadei, + 3-HP
  Relative mRNA level 3hibdh + 3-HP: 6.61
[3]; Thalassospira xiamenensis, + 3-HP
  Relative mRNA level 3hibdh + 3-HP: 7.02
[3]; Variovorax paradoxus, + 3-HP
  Relative mRNA level 3hibdh + 3-HP: 6.59
[3]; [27]
  Relative mRNA level 3hibdh + 3-HP: 6.43
[3]; Vibrio furnissii, + 3-HP
  Relative mRNA level 3hibdh + 3-HP: 6.03
[3]; [28]
  Relative mRNA level 3hibdh + 3-HP: 6.23
[3]; Xanthomonas campestri, + 3-HP
  Relative mRNA level 3hibdh + 3-HP: 5.81
[3]; [29]
  increase of expression of 3hibdh by 3-HP: 14 fold
[4]; cells exposed to 25 mmol/L 3-HP vs no 3-HP, M9 medium, rpoD reference gene
  fold increase of 3hibdhIV mRNA expression: 146 fold
[4]; strain with C4 LysR gene removed
  3hibdhIV expression on addition of 3-HP: did not increase the expression
